The target in assay [1] is T1, IRAK4 (Homo sapiens, UniProt Q9NWZ3).
T1 construct: 1 nM IRAK4 (160-460); purchased SignalChem M24016
T1 sequence (Q9NWZ3 160-460): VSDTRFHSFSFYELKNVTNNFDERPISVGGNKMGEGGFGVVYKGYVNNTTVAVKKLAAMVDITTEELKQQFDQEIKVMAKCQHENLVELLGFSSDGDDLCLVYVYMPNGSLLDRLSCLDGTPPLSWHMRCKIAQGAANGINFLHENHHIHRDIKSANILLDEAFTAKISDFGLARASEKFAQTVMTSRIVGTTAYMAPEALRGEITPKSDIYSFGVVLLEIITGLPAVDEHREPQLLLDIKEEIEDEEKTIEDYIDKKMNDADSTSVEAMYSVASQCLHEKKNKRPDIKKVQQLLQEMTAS
Kind of assay: IRAK4 Inhibition Assay (kinase reaction, Caliper capillary electrophoresis). The class given is biochemical. The conditions noted are these: 500 μM ATP, 11 concentrations.

Assay [2] addresses T2, HPK1 (Homo sapiens, UniProt Q92918).
T2 construct: purchased SignalChem M23-11G
T2 sequence (Q92918 1-346 limits assumed): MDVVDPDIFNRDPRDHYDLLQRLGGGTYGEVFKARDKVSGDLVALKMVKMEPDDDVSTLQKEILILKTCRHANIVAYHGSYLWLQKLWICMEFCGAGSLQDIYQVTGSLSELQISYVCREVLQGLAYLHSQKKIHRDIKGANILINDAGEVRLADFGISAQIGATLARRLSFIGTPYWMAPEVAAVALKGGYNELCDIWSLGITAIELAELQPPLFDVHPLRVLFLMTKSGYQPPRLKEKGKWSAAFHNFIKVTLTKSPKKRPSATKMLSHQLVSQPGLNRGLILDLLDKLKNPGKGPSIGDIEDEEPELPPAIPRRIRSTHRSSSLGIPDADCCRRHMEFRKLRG
Kind of assay: HPK1 Inhibition Assay (kinase reaction, Caliper capillary electrophoresis). Format: biochemical. The conditions noted are these: for IC50: 0.625 nM HPK1, 22 μM ATP, 11 concentrations, read-out: HPK1 IC50; for IRAK4/HPK1 Ratio: ratio of the IRAK4 IC50 value to the HPK1 IC50 value. The gist of the method:
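Kinase reactions ran 3 h and were stopped with 1 mM EDTA, with enzyme level and time set for at most 20-30% peptide substrate conversion. Phosphorylated and unphosphorylated peptide were separated by capillary electrophoresis to measure conversion. IC50 derived from 11 compound concentrations.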

One may read the IC50 as the concentration at which inhibition is half-maximal. Compound `CCCCc1noc(-c2cnc(Nc3ccc4c(c3)C(C)(C)OC4=O)nc2N[C@H](CO)c2ccccc2)n1` [Example 36, 5-{[5-(3-butyl-1,2,4-oxadiazol-5-yl)-4-{[(1S)-2-hydroxy-1-phenylethyl]amino}pyrimidin-2-yl]amino}-3,3-dimethyl-1,3-dihydro-2-benzofuran-1-one] came in with an IC50 in assay [1] of 0.25 to 1 µM. Moreover, in assay [2], the IC50 was less than 0.05 µM and the “IRAK4/HPK1 Ratio” value was “C (C=>50)”.

On to `CC1(C)OC(=O)c2ccc(Nc3ncc(C(=O)NCCCn4ccnc4)c(N[C@H](CO)c4ccccc4)n3)cc21` [Example 19, 2-[(3,3-dimethyl-1-oxo-1,3-dihydro-2-benzofuran-5-yl)amino]-4-{[(1S)-2-hydroxy-1-phenylethyl]amino}-N-[3-(1H-imidazol-1-yl)propyl]pyrimidine-5-carboxamide], for which the IC50 in assay [1] was 0.25 to 1 µM; in assay [2], less than 0.05 µM. Moreover, in assay [2], the “IRAK4/HPK1 Ratio” value was “B (B=10 to 50)”.

In the case of `CC1(C)OC(=O)c2ccc(Nc3cc(N[C@H](CO)c4ccccc4)c(-c4nc(C5CC5)no4)cn3)cc21` [Example 78, 5-{[5-(3-cyclopropyl-1,2,4-oxadiazol-5-yl)-4-{[(1S)-2-hydroxy-1-phenylethyl]amino}pyridin-2-yl]amino}-3,3-dimethyl-1,3-dihydro-2-benzofuran-1-one], the IC50 in assay [1] was in the range of 0.25 to 1 µM. Moreover, in assay [2], the IC50 was in the range of 0.05 to 0.25 µM and the “IRAK4/HPK1 Ratio” value is listed as “B (B=10 to 50)”.

In turn, `CC1(C)OC(=O)c2ccc(Nc3ncc(C(=O)N[C@H]4C[C@@H]4c4ccccc4)c(N[C@H](CO)c4ccccc4)n3)cc21` [Example 17, 2-[(3,3-dimethyl-1-oxo-1,3-dihydro-2-benzofuran-5-yl)amino]-4-{[(1S)-2-hydroxy-1-phenylethyl]amino}-N-[(1S,2R)-2-phenylcyclopropyl]pyrimidine-5-carboxamide] returned an IC50 in assay [1] of 0.25 to 1 µM. Also, in assay [2], the IC50 is 0.05 to 0.25 µM and the “IRAK4/HPK1 Ratio” value was “B (B=10 to 50)”.

For the compound `CC(C)(CCCCO)c1noc(-c2cnc(Nc3ccc4c(c3)C(C)(C)OC4=O)nc2N[C@H](CO)c2ccccc2)n1` [Example 37, 5-[(4-{[(1S)-2-hydroxy-1-phenylethyl]amino}-5-[3-(6-hydroxy-2-methylhexan-2-yl)-1,2,4-oxadiazol-5-yl]pyrimidin-2-yl)amino]-3,3-dimethyl-1,3-dihydro-2-benzofuran-1-one], the half-maximal inhibitory concentration (IC50) in assay [1] lay within 0.25 to 1 µM. Besides, in assay [2], the IC50 was less than 0.05 µM and the “IRAK4/HPK1 Ratio” value is reported as “C (C=>50)”.

In assay [1], `CC(C)(O)c1nnc(-c2cnc(Nc3ccc4c(c3)C(C)(C)OC4=O)nc2N[C@H](CO)c2ccccc2)o1` [Example 61, 5-[(4-{[(1S)-2-hydroxy-1-phenylethyl]amino}-5-[5-(2-hydroxypropan-2-yl)-1,3,4-oxadiazol-2-yl]pyrimidin-2-yl)amino]-3,3-dimethyl-1,3-dihydro-2-benzofuran-1-one] showed an IC50 of 0.05 to 0.25 µM. For the same compound, in assay [2], the IC50 was less than 0.05 µM and the “IRAK4/HPK1 Ratio” value is “C (C=>50)”.

The values above are taken from patent US11166959B2, “Isofuranone compounds useful as HPK1 inhibitors” (BRISTOL-MYERS SQUIBB COMPANY, priority 2017, dated 2021).
